Like-named read-outs stand apart in the source and are kept apart here. Bounds are passed on as bounds.

This is an account of results in patent publication EP4707277A1, “NOVEL HETEROCYCLIC AMINE DERIVATIVES AND PHARMACEUTICAL COMPOSITION COMPRISING SAME” (Daewoong Pharmaceutical Co., Ltd., priority 2023, dated 2024).

One assay addresses T1, BTK (Homo sapiens, UniProt Q06187).
T1 construct: purchased Signalchem B10-10H
As to the kind of experiment: Inhibitory activity against BTK, ADP-Glo Kinase system (Promega). The class given is biochemical. In short, it runs like this: (§1)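 ADP-Glo luminescent ADP detection with recombinant human ITK (4 ng/reaction) or BTK (10 ng/reaction) and poly(Glu4,Tyr1) substrate at 0.2 µg/µl. Buffer: Tris pH 7.5, MgCl2, MnCl2, BSA, DTT. ATP 1 mM or Km (BTK 10 µM, ITK 25 µM); 1% DMSO; 1 h at 30°C; IC50 from curve fit.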
A general note: In ADP-Glo the light output rises with the ADP produced.

The target in another assay is T2, ITK (Homo sapiens, UniProt Q08881).
T2 construct: purchased Signalchem I13-11G-10
T2 sequence (Q08881 1-620): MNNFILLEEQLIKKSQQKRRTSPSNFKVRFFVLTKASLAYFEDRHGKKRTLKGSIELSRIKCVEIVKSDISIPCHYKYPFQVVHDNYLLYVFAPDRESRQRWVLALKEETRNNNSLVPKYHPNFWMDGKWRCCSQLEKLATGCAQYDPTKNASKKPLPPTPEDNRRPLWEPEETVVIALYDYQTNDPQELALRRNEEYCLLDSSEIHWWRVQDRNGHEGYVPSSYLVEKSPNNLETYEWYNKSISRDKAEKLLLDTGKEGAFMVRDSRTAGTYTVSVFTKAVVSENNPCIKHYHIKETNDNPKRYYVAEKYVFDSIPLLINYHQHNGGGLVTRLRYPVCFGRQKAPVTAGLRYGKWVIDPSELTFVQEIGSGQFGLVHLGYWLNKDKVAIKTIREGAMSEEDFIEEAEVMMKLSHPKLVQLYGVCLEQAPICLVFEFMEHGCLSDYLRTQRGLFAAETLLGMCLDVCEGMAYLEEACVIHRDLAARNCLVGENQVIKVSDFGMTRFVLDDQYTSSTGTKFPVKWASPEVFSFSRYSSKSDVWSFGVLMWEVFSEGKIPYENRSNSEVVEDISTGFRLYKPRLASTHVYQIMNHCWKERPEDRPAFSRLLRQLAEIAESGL
As to the kind of experiment: Inhibitory activity against ITK, ADP-Glo Kinase system (Promega). The assay is classed as biochemical. In short, it runs like this: as §1

The mark [1] stands for this setting: 1mM ATP, read-out: BTK IC50(nM) 1mM ATP.
[2] abbreviates: Km ATP (BTK: 10 uM), read-out: BTK IC50(nM) Km ATP.
The mark [3] stands for this setting: 1mM ATP, read-out: ITK IC50(nM) 1mM ATP.
Setting [4] is: Km ATP (ITK: 25uM), read-out: ITK IC50(nM) Km ATP.

T1 sequence (Q06187 whole entry): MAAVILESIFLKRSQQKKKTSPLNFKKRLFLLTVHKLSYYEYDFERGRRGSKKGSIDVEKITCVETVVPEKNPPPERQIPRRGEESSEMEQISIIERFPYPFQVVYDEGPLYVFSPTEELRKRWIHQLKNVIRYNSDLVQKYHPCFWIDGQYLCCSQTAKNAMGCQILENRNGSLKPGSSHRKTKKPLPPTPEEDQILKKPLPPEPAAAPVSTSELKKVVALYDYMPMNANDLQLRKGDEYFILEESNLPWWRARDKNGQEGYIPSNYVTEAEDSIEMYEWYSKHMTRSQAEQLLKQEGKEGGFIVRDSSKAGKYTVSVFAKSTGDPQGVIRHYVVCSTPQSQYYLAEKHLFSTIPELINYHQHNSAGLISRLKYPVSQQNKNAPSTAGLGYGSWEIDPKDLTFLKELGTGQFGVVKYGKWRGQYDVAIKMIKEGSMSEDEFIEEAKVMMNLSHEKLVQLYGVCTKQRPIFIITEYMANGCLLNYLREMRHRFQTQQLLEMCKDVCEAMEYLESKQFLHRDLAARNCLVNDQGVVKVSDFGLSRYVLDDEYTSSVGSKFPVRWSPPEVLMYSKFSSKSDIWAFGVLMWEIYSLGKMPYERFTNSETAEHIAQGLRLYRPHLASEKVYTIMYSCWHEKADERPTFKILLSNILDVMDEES

What is called IC50 is the concentration that gives 50% inhibition. With `C=CC(=O)N1C2C=C(c3nc(Nc4ncc(C)s4)cc4c3ccn4C)CC1CC2` (stereo not shown) [Example 28, 1-(3-(1-methyl-6-((5-methylthiazol-2-yl)amino)-1H-pyrrolo[3,2-c]pyridin-4-yl)-8-azabicyclo[3.2.1]oct-2-en-8-yl)prop-2-en-1-one], the IC50 at BTK (setting [1]), on BTK (setting [2]), at ITK (setting [3]) and on ITK (setting [4]) was ≤ 20 nM each time.
With `C=CC(=O)N1CC[C@H](Oc2nc(Nc3ncc(C)s3)cc3c2ccn3C(C)C)C1` [Example 79, (S)-1-(3-((1-isopropyl-6-((5-methylthiazol-2-yl)amino)-1H-pyrrolo[3,2-c]pyridin-4-yl)oxy)pyrrolidin-1-yl)prop-2-en-1-one], the IC50 at BTK (setting [1]), at BTK (setting [2]), on ITK (setting [3]) and at ITK (setting [4]) was ≤ 20 nM throughout.
`C=CC(=O)N1CC=C(c2nc(Nc3cc(F)ccn3)cc3c2ccn3C(C)C)CC1` [Example 47, 1-(4-(6-((4-fluoropyridin-2-yl)amino)-1-isopropyl-1H-pyrrolo[3,2-c]pyridin-4-yl)-3,6-dihydropyridin-1(2H)-yl)prop-2-en-1-one]: the IC50 at BTK (setting [1]) was ≤ 20 nM; on ITK (setting [3]), 20 to 100 nM.
The like results for `C=CC(=O)N1CC[C@H](Oc2nc(Nc3cc(OC)ncn3)cc3c2ccn3C(C)C)C1` [Example 103, (S)-1-(3-((1-isopropyl-6-((6-methoxypyrimidin-4-yl)amino)-1H-pyrrolo[3,2-c]pyridin-4-yl)oxy)pyrrolidin-1-yl)prop-2-en-1-one] were, in that order, ≤ 20 nM and 20 to 100 nM.
Consider `C=CC(=O)N1CCCC12CC(Oc1nc(Nc3ncc(C)s3)cc3c1ccn3CC(C)C)C2` (stereo not shown) [Example 200, 1-(2-((1-isobutyl-6-((5-methylthiazol-2-yl)amino)-1H-pyrrolo[3,2-c]pyridin-4-yl)oxy)-5-azaspiro[3.4]octan-5-yl)prop-2-en-1-one], for which the IC50 on BTK (setting [1]) fell in the range of 20 to 100 nM; on ITK (setting [3]), 100 to 500 nM.
For `C=CC(=O)N1CC[C@H](Oc2nc(Nc3ncc(C)s3)cc3c2ccn3CC)C1` [Example 125, (S)-1-(3-((1-ethyl-6-((5-methylthiazol-2-yl)amino)-1H-pyrrolo[3,2-c]pyridin-4-yl)oxy)pyrrolidin-1-yl)prop-2-en-1-one], the IC50 at BTK (setting [2]) and at ITK (setting [4]) was ≤ 20 nM each time.
Consider `C=CC(=O)N1CC(C)(Oc2nc(Nc3ncc(C)s3)cc3c2ccn3C(C)C)C1` [Example 163, 1-(3-((1-isopropyl-6-((5-methylthiazol-2-yl)amino)-1H-pyrrolo[3,2-c]pyridin-4-yl)oxy)-3-methylazetidin-1-yl)prop-2-en-1-one], for which the 50% inhibitory concentration (IC50) on BTK (setting [1]) and on ITK (setting [3]) was ≤ 20 nM each time.
As for `C=CC(=O)N1CC[C@H](Oc2nc(Nc3ncc(C)s3)cc3c2ccn3CC(F)(F)F)C1` [Example 205, (S)-1-(3-((6-((5-methylthiazol-2-yl)amino)-1-(2,2,2-trifluoroethyl)-1H-pyrrolo[3,2-c]pyridin-4-yl)oxy)pyrrolidin-1-yl)prop-2-en-1-one], the IC50 at BTK (setting [1]) and on ITK (setting [3]) was ≤ 20 nM each time.
In the case of `C=CC(=O)N1CCC[C@H](COc2nc(Nc3ncc(C)s3)cc3c2ccn3CC(C)C)C1` [Example 215, (S)-1-(3-(((1-isobutyl-6-((5-methylthiazol-2-yl)amino)-1H-pyrrolo[3,2-c]pyridin-4-yl)oxy)methyl)piperidin-1-yl)prop-2-en-1-one], the IC50 is ≤ 20 nM at BTK (setting [1]) and 100 to 500 nM on ITK (setting [3]).
For `C#CC(=O)N1C[C@H](F)[C@H](Oc2nc(Nc3ncc(C)s3)cc3c2ccn3CC(C)C)C1` [Example 231, 1-((3S,4R)-3-fluoro-4-((1-isobutyl-6-((5-methylthiazol-2-yl)amino)-1H-pyrrolo[3,2-c]pyridin-4-yl)oxy)pyrrolidin-1-yl)prop-2-yn-1-one] the same measures were ≤ 20 nM and ≤ 20 nM.
The like results for `C=CC(=O)N1CC(C)(Oc2nc(Nc3ncc(C)s3)cc3c2ccn3CC2CC2)C1` [Example 167, 1-(3-((1-(cyclopropylmethyl)-6-((5-methylthiazol-2-yl)amino)-1H-pyrrolo[3,2-c]pyridin-4-yl)oxy)-3-methylazetidin-1-yl)prop-2-en-1-one] were, in that order, ≤ 20 nM and ≤ 20 nM.
For `C=CC(=O)N1C[C@H](F)[C@H](Oc2nc(Nc3cc(C)[nH]n3)cc3c2ccn3CC(C)C)C1` [Example 196, 1-((3S,4R)-3-fluoro-4-((1-isobutyl-6-((5-methyl-1H-pyrazol-3-yl)amino)-1H-pyrrolo[3,2-c]pyridin-4-yl)oxy)pyrrolidin-1-yl)prop-2-en-1-one], the IC50 at BTK (setting [1]) and at ITK (setting [3]) was 20 to 100 nM in each case.
